Source: patent US12558424B2, “T cells having enhanced anti-tumor activity” (The United States of America, as represented by the …, priority 2019, dated 2026)
pEC50, pIC50: −log10 of the molar value. Read-outs that look alike come from different tables or passages of the source.

Key:
[1] = tested on: A673; assay: A673 CTG; type: cell-based; settings: Homo sapiens; A673 cells
[2] = tested on: MiaPaCa; assay: MiaPaCa CTG; type: cell-based; settings: Homo sapiens, MIA PaCa-2; MiaPaCa cells
[3] = molecular target: LDA(B) (Homo sapiens, UniProt P07195); assay: LDA(B) biochemical IC50
[4] = tested on: MiaPaCa; assay: MiaPaCa Lactate OP; type: cell-based; settings: Homo sapiens, MIA PaCa-2; MiaPaCa cells
[5] = PK AUC after IV and PO dosing; settings: in vivo
[6] = tested on: A673; assay: A673 Lactate OP; type: cell-based; settings: Homo sapiens; A673 cells
[7] = molecular target: LDH(A) (Homo sapiens, UniProt P00338); assay: LDH(A) biochemical IC50
[8] = molecular target: lactate dehydrogenase (Homo sapiens, UniProt P00338); assay: SPR binding (+NADH)
[9] = tested on: murine splenic CD8+ T cells; assay: RNA-Seq gene expression; type: cell-based, mouse
Description: (§1) Except where otherwise specified, all experiments were performed with murine splenic CD8+ T cells isolated with […] Technologies EasySep™ Mouse CD8+ T Cell Isolation Kit (catalog #19853). Following isolation, cells were resuspended at 1×10^6 cells/ml in T cell culture medium: RPMI 1640 medium (Thermo 11875093) containing 10% fetal bovine serum (FBS), 1× Glutamax (Life Technologies #35050-061), 1 mM sodium pyruvate, 0.1% β-mercaptoethanol, and penicillin/streptomycin. Cells were plated in 24-well tissue culture plates precoated with mouse anti-CD3 (2 μg/ml) and cultured with soluble mouse anti-CD28 (2 μg/ml) for 48 h. After incubation, cells were pooled, washed twice in media, and re-plated at 1×10^6 cells/ml. […] Unless otherwise specified, cells were stimulated for 48 h before being harvested. Where noted, cells were treated (1 μM) with a novel, pyrazole-based LDH inhibitor (NCI-737, herein denoted as NCI-737) that was developed under the auspices of the NCI Experimental Therapeutics Program 29.
Total RNA was extracted using an RNA miniprep kit (Zymo Research), and 500 ng RNA was used for library preparation. RNA-Seq libraries were prepared using mRNA HyperPrep Kits (KK8580, Kapa Biosystems) and indexed with NEXTflex DNA Barcodes-24. After final amplification, samples were loaded to 2% E-Gel pre-cast gels (ThermoFisher), and 250 to 400 bp DNA fragments were recovered and purified with Zymoclean Gel DNA Recovery Kit […]. After quantification by Qubit (Invitrogen), barcoded samples were mixed and sequenced on an Illumina HiSeq3000 platform. Sequenced reads (50 bp, single end) were obtained with the Illumina CASAVA pipeline and mapped to the mouse genome mm10 (GRCm38, December 2011) using Bowtie 2.2.649 and Tophat 2.2.149. Only uniquely mapped reads were retained. Raw counts that fell on exons were calculated and normalized by using RPKM (Reads Per Kilobase per Million mapped reads). Differentially expressed genes were identified with the R Bioconductor package edgeR50, and the expression heat maps were generated with the R package “pheatmap”. Metabolic genes were extracted from the KEGG pathway database, including those corresponding to Fatty Acid Biosynthesis/Degradation, Ox/Phos, Pyruvate metabolism, amino sugar and nucleotide sugar metabolism, pentose phosphate pathway, the citric acid cycle, and glycolysis/gluconeogenesis. Metabolic genes that overlapped with RNA-Seq data were subsequently shown in heat maps.

[10] = tested on: murine splenic CD8+ T cells; assay: Media measurements of lactate secretion and glucose consumption (YSI 2900 analyzer); type: cell-based, mouse; settings: IL-2- or IL-21-stimulated cells; NCI-737 1 μM
Description: as §1, with “Where noted, cells were treated (1 μM) with a novel, pyrazole-based LDH inhibitor (NCI-737, herein denoted as NCI-737) that was developed under the auspices of the NCI Experimental Therapeutics Program 29.” left out
(§2) Cells were then washed with media supplemented with dialyzed fetal bovine serum (“FBS”) (Thermo-Fischer #A3382001), replated in RPMI 1640 medium containing 10% dialyzed FBS, 1× Glutamax (ThermoFisher #35050061), 1 mM sodium pyruvate, 0.1% β-mercaptoethanol, and penicillin-streptomycin, and re-stimulated with same cytokine treatment for 5 h. […] Cell extracts were analyzed using a quadrupole-orbitrap mass spectrometer (Q Exactive, Thermo Fisher Scientific, San Jose, CA) coupled to hydrophilic interaction chromatography via electrospray ionization. […] Data were analyzed using EL-MAVEN software. […]

[11] = tested on: human CD8+ T cells; assay: Seahorse mitochondrial stress test (OCR, ECAR, SRC), human CD8+ T cells; type: cell-based; settings: both IL-21 and IL-2
[12] = tested on: pmel-1 CD8+ T cells; assay: Flow cytometry of pmel-1 CD8+ T cell differentiation (CD44, CD62L, Sca-1); type: cell-based, mouse; settings: NCI-737 1 μM
[13] = tested on: mouse CD8+ T cells; assay: Seahorse mitochondrial stress test (OCR, ECAR, SRC), mouse CD8+ T cells; type: cell-based; settings: NCI-737 1 μM
Description: as §1
The oxygen consumption rates (OCR) and extracellular acidification rates (ECAR) were recorded using a Seahorse XFe96 Analyzer (Agilent). Cells were washed and resuspended in Agilent XF Assay Medium supplemented with 25 mM glucose, 1 mM sodium pyruvate, and 2 mM L-Glutamine. Cells were plated on Seahorse Assay plates at 0.2×10^6 cells/well and during the assay were exposed to 1 μM oligomycin, 1.5 μM trifluoromethoxy carbonylcyanide phenylhydrazone (“FCCP”), 100 nM rotenone, and 1 μM antimycin A, as indicated.

[14] = tested on: murine splenic CD8+ T cells; assay: U-13C-glucose tracer study; type: cell-based, mouse; settings: NCI-737 1 μM
Description: as §1, with “Where noted, cells were treated (1 μM) with a novel, pyrazole-based LDH inhibitor (NCI-737, herein denoted as NCI-737) that was developed under the auspices of the NCI Experimental Therapeutics Program 29.” left out
as §2

[15] = tested on: murine splenic CD8+ T cells; assay: LC-MS metabolomics of intracellular metabolites; type: cell-based, mouse; settings: NCI-737 1 μM
Description: as §1
Cells were then washed with media supplemented with dialyzed fetal bovine serum (“FBS”) (Thermo-Fischer #A3382001), replated in RPMI 1640 medium containing 10% dialyzed FBS, 1× Glutamax (ThermoFisher #35050061), 1 mM sodium pyruvate, 0.1% β-mercaptoethanol, and penicillin-streptomycin, and re-stimulated with same cytokine treatment for 5 h. For ^13C labelling, cells were instead replated in media containing 2 g/L U^13C-glucose (Cambridge Isotope Laboratories #CLM-1396) for 6 h. 3×10^6 cells/replicate (3-4 replicates/treatment) were then transferred to microcentrifuge tubes and centrifuged for 1 min at 6000×g. Room temperature PBS was added to wash cell pellets followed by another round of centrifugation for 1 min. Pellets were then immediately resuspended in 150 μl of ice cold extraction solvent (40:40:20 acetonitrile:methanol:water+0.5% formic acid) for 5 min. After incubation, 13.2 μl of 15% ammonium bicarbonate, was added and samples were centrifuged for 15 min at maximum speed at 4° C. Supernatant containing cellular metabolites was transferred to a fresh tube, frozen in dry ice, and stored at −80° C. Cell extracts were analyzed using a quadrupole-orbitrap mass spectrometer (Q Exactive, Thermo Fisher Scientific, San Jose, CA) coupled to hydrophilic interaction chromatography via electrospray ionization. LC separation was on a XBridge BEH Amide column (2.1 mm×150 mm, 2.5 μm particle size; Waters, Milford, MA) using a gradient of solvent A (20 mM ammonium acetate, 20 mM ammonium hydroxide in 95:5 water: acetonitrile, pH 9.45) and solvent B (acetonitrile). The flow rate was 150 μl/min, column temperature was 25° C., autosampler temperature was 5° C., and injection volume was 10 μL. The LC gradient was: 0 min, 90% B; 2 min, 85% B; 3 min, 75% B; 7 min, 75% B; 8 min, 70% B; 9 min, 70% B; 10 min, 50% B; 12 min, 50% B; 13 min, 25% B; 14 min, 25% B; 16 min, 0% B; 21 min, 0% B; 22 min, 90% B; 25 min, 90% B. Autosampler temperature was 5° C., and injection volume was 10 μl. The mass spectrometer was operated in negative ion mode to scan from m/z 70 to 1000 at 1 Hz and a resolving power of 140,000 45. Data were analyzed using EL-MAVEN software. Isotope labeling was corrected for natural 13C abundance47. Media measurements were acquired using a YSI 2900 Series Biochemical Analyzer (Xylem).

[16] = tested on: B16 melanoma (B16KVP); assay: Mouse tumor model and adoptive transfer; type: in vivo
[17] = PO 50 mg/kg, read-out: PO 50 mg/kg AUC

LDA(B), sequence (P07195 whole entry): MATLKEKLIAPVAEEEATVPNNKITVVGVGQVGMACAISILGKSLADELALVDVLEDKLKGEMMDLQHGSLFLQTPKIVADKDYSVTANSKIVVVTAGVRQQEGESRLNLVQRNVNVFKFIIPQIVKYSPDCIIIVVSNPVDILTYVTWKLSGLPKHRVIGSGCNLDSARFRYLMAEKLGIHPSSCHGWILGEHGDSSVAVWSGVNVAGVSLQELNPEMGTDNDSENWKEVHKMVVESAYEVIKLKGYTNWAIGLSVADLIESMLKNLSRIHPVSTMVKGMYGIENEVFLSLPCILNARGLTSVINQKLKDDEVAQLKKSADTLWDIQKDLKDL

SMILES: Cc1ccc(C#Cc2cc(-c3nn(-c4nc(C(=O)O)cs4)c(CC4CC4)c3Cc3ccc(S(N)(=O)=O)c(F)c3)ccc2F)s1 [Compound 390006]
- pEC50 [1]: 6.52
- pEC50 [2]: 6.45
- pIC50 [3]: 7.28
- pEC50 [4]: 6.55
- AUC ([5]; IV 10 mg/kg): 10600 ng·h/mL
- AUC [5, 17]: 31400 ng·h/mL
- pEC50 [6]: 6.46
- pIC50 [7]: 7.10
- SPR ka (+NADH) [8]: 15000 M⁻¹ s⁻¹
- SPR kd (+NADH) [8]: <1e-06 s⁻¹

SMILES: Cc1ccc(C#Cc2cccc(-c3nn(-c4nc(C(=O)O)cs4)c(CC4CC4)c3Cc3ccc(S(N)(=O)=O)c(F)c3)c2)s1 [Compound 420737]
- pEC50 [1]: 6.66
- pEC50 [2]: 6.50
- pIC50 [3]: 7.36
- transcripts for exhaustion-associated transcription factors Nr4a1, Nr4a2, Nrfa3, Prdm1 ([9]; IL-2-induced, addition of NCI-737): decreased by the addition of NCI-737 to levels similar to that observed in cells cultured with IL-21
- induction of Ldha by IL-2 ([9]; IL-2 context, NCI-737 1 μM): prevented the induction
- levels of Ldhb ([9]; IL-2 context, NCI-737 1 μM): increased
- XBP1 transcript expression ([9]; induced by IL-2, NCI-737): inhibited
- transcripts for exhaustion markers Lag3, Pdcd1, Cd244, Havcr2 ([9]; induced by IL-21, addition of NCI-737): repressed
- glucose consumption [10]: reduced
- lactate secretion [10]: reduced
- ECAR [11]: decreased
- SRC [11]: raised
- pEC50 [4]: 6.63
- AUC ([5]; IV 10 mg/kg): 16500 ng·h/mL
- AUC [5, 17]: 53400 ng·h/mL
- pEC50 [6]: 6.46
- TSCM cells ([12]; IL-2-treated pmel-1 cells): restored TSCM cells in IL-2-treated cells to the levels observed with IL-21
- TSCM cells ([12]; IL-21-treated pmel-1 cells): synergized with IL-21 to generate TSCM cells
- ECAR ([13]; IL-2-treated cells): decreased
- OCR ([13]; IL-2-treated cells): significantly increased
- SRC ([13]; IL-2-treated cells): significantly increased
- ECAR ([13]; IL-21-treated cells): did not significantly alter
- SRC ([13]; IL-21-treated cells): did not significantly alter
- basal OCR ([13]; IL-21-treated cells): did not significantly alter
- relative contribution of glucose into the TCA cycle ([14]; IL-2-treated cells): higher relative contribution
- isotopomer distribution ([14]; IL-21-stimulated cells): little effect
- increase in the NADH/NAD+ ratio ([15]; IL-2-treated cells): ~100 fold
- intracellular pyruvate ([15]; IL-2-treated cells): markedly increased
- 2-hydroxyglutarate (2HG) ([15]; IL-2 setting): decreased
- increase in glycolytic intermediates and FGAR ([15]; IL-2 setting): > 4 fold
- NADH/NAD+ ratio ([15]; IL-21 stimulated cells): slightly raised
- intracellular pyruvate levels ([15]; IL-21 stimulated cells): did not alter
- metabolite levels ([15]; IL-21 stimulated cells): little effect
- lactate in cells ([15]; cells stimulated with either IL-2 or IL-21): lowered
- pIC50 [7]: 7.17
- antitumor effect of adoptively transferred pmel-1 CD8+ T cells ([16]; IL-2-treated cells, NCI-737 1 μM only during in vitro expansion): augmented the antitumor effect to the level of IL-21-treated cells
- antitumor effect of adoptively transferred pmel-1 CD8+ T cells ([16]; cells generated with IL-21 and NCI-737 (1 μM, in vitro only)): the most potent
- SPR ka (+NADH) [8]: 16000 M⁻¹ s⁻¹
- SPR kd (+NADH) [8]: <1e-06 s⁻¹
